Like-named read-outs stand apart in the source and are kept apart here.
Biological target: T1, Human BCL-XL protein (N-terminal HiBiT tagged BCL-XL in HT1080 cells) (Homo sapiens, UniProt Q07817)
T1 construct: expressed in transfected cells; host or cells: HT-1080 (ATCC CCL-121), stably transduced with lentivirus pLV-UBC-N-HiBiT-BCL-XL-PGK-puro and selected with puromycin
Experiment: HiBiT based degradation assay
Assay type: cell-based
Settings: HT1080 cells expressing HiBiT-BCL-XL; for Ymin (24 h) / Ymin (6 h): BCL-XL degradation normalized with DMSO control; for DC50: BCL-XL degradation
From the text: Human BCL-XL protein coding open reading frame fused with N-terminal HiBiT coding sequence was synthesized from Integrated DNA Technologies (IDT). Next, N-HiBiT-BCL-XL sequence was cloned into pLV-UBC-PGK-Puro, a lentivirus plasmid purchased from Vectorbuilder, to generate pLV-UBC-N-HiBiT-BCL-XL-PGK-puro. Lentiviral particles were generated from Lenti-X™ 293T cells (Clontech) by co-transfection of pLV-UBC-N-HiBiT-BCL-XL-PGK-puro plasmids and lentiviral packaging plasmid mix (Cellecta). HT-1080 [HT1080](ATCC CCL-121) cells were infected with the lentivirus, and HT1080 cells stably integrated with the lentiviral vectors were established by incubation with 1 μg/mL puromycin (Thermofisher).
HT1080 cells expressing N-terminal HiBiT tagged BCL-XL were dispensed into a 384-well plate pre-spotted with compounds at varying concentrations. Three thousand cells were seeded into each well in 40 μL of RPMI 1640 media. […] After incubation, luminescence was read on a PHERAstar FSX Plate Reader (BMG). BCL-XL degradation at each indicated concentration was normalized with the DMSO control. The BCL-XL degradation curves were plotted using a four-parameter logistic model. For compounds displaying hook effects, the curve fitting was performed using the bottom point of the hook curves (i.e., the point of Ymin) as the bottom plateau to calculate EC50.

T1 sequence (Q07817 whole entry): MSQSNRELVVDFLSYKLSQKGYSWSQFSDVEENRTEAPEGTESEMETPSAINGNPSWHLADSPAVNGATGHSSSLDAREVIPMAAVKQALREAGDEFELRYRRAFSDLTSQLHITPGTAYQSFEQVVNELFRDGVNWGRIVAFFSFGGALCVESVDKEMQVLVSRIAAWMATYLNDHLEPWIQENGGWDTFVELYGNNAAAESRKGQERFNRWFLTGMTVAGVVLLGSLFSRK

In the case of Cc1c(OCC[C@H]2CC23CCN(CC(=O)Nc2ccc4c(C5CCC(=O)NC5=O)nn(C)c4c2)CC3)cccc1-c1ccc(N2CCc3cccc(C(=O)Nc4nc5ccccc5s4)c3C2)nc1C(=O)O (stereo in doubt) [Compound 289b, 6-(8-(benzo[d]thiazol-2-ylcarbamoyl)-3,4-dihydroisoquinolin-2(1H)-yl)-3-(3-(2-((1R)-6-(2-((3-(2,6-dioxopiperidin-3-yl)-1-methyl-1H-indazol-6-yl)amino)-2-oxoethyl)-6-azaspiro[2.5]octan-1-yl)ethoxy)-2-methylphenyl)picolinic acid], the “Ymin (24 h)” value (24 h) is reported as “A (Ymin < 50%)” and the DC50 (24 h, read-out: EC50 (24 h)) is reported as < 100 nM.

Cc1c(OCCC2CCN(CC(=O)Nc3cccc4c(C5CCC(=O)NC5=O)nn(C)c34)CC2)cccc1-c1ccc(N2CCc3cccc(C(=O)Nc4nc5ccccc5s4)c3C2)nc1C(=O)O (stereo not shown) [Compound 101, 6-[8-(1,3-benzothiazol-2-ylcarbamoyl)-3,4-dihydro-1H-isoquinolin-2-yl]-3-[3-[2-[1-[2-[[3-(2,6-dioxo-3-piperidyl)-1-methyl-indazol-7-yl]amino]-2-oxo-ethyl]-4-piperidyl]ethoxy]-2-methyl-phenyl]pyridine-2-carboxylic acid] was tested, and the “Ymin (6 h)” value (6 h) was “B (50% ≤ Ymin < 70%)”, the “Ymin (24 h)” value (24 h) was “B (50% ≤ Ymin < 70%)” and the DC50 (6 h, read-out: EC50 (6 h)) was < 100 nM. For the same compound, the DC50 (24 h, read-out: EC50 (24 h)) was < 100 nM.

In the case of Cc1c(Oc2ccc(CCC(=O)Nc3ccc(C4CCC(=O)NC4=O)cc3)cc2)cccc1-c1ccc(N2CCc3cccc(C(=O)Nc4nc5ccccc5s4)c3C2)nc1C(=O)O (stereo not shown) [Compound 102, 6-[8-(1,3-benzothiazol-2-ylcarbamoyl)-3,4-dihydro-1H-isoquinolin-2-yl]-3-[3-[4-[3-[4-(2,6-dioxo-3-piperidyl)anilino]-3-oxo-propyl]phenoxy]-2-methyl-phenyl]pyridine-2-carboxylic acid], the “Ymin (6 h)” value (6 h) is reported as “B (50% ≤ Ymin < 70%)” and the DC50 (6 h, read-out: EC50 (6 h)) is reported as < 100 nM.

With Cc1c(OCCN2CCN(CC(=O)Nc3ccc4c(C5CCC(=O)NC5=O)nn(C)c4c3)CC2)cccc1-c1ccc(N2CCc3cccc(C(=O)Nc4nc5ccccc5s4)c3C2)nc1C(=O)O (stereo not shown) [Compound 103, 6-[8-(1,3-benzothiazol-2-ylcarbamoyl)-3,4-dihydro-1H-isoquinolin-2-yl]-3-[3-[2-[4-[2-[[3-(2,6-dioxo-3-piperidyl)-1-methyl-indazol-6-yl]amino]-2-oxo-ethyl]piperazin-1-yl]ethoxy]-2-methyl-phenyl]pyridine-2-carboxylic acid] the “Ymin (6 h)” value (6 h) was “A (Ymin < 50%)”, the “Ymin (24 h)” value (24 h) was “A (Ymin < 50%)” and the DC50 (6 h, read-out: EC50 (6 h)) was < 100 nM. For the same compound, the DC50 (24 h, read-out: EC50 (24 h)) was < 100 nM.

With Cc1c(OCCCN2CCN(CC(=O)Nc3ccc4c(C5CCC(=O)NC5=O)nn(C)c4c3)CC2)cccc1-c1ccc(N2CCc3cccc(C(=O)Nc4nc5ccccc5s4)c3C2)nc1C(=O)O (stereo not shown) [Compound 104, 6-[8-(1,3-benzothiazol-2-ylcarbamoyl)-3,4-dihydro-1H-isoquinolin-2-yl]-3-[3-[3-[4-[2-[[3-(2,6-dioxo-3-piperidyl)-1-methyl-indazol-6-yl]amino]-2-oxo-ethyl]piperazin-1-yl]propoxy]-2-methyl-phenyl]pyridine-2-carboxylic acid] the “Ymin (6 h)” value (6 h) was “B (50% ≤ Ymin < 70%)”, the “Ymin (24 h)” value (24 h) was “A (Ymin < 50%)” and the DC50 (6 h, read-out: EC50 (6 h)) was < 100 nM. For the same compound, the DC50 (24 h, read-out: EC50 (24 h)) was < 100 nM.

With Cc1c(OCCCN2CCN(CC(=O)Nc3cccc4c(C5CCC(=O)NC5=O)nn(C)c34)CC2)cccc1-c1ccc(N2CCc3cccc(C(=O)Nc4nc5ccccc5s4)c3C2)nc1C(=O)O (stereo not shown) [Compound 105, 6-[8-(1,3-benzothiazol-2-ylcarbamoyl)-3,4-dihydro-1H-isoquinolin-2-yl]-3-[3-[3-[4-[2-[[3-(2,6-dioxo-3-piperidyl)-1-methyl-indazol-7-yl]amino]-2-oxo-ethyl]piperazin-1-yl]propoxy]-2-methyl-phenyl]pyridine-2-carboxylic acid] the “Ymin (6 h)” value (6 h) was “B (50% ≤ Ymin < 70%)”, the “Ymin (24 h)” value (24 h) was “B (50% ≤ Ymin < 70%)” and the DC50 (6 h, read-out: EC50 (6 h)) was < 100 nM. The DC50 (24 h, read-out: EC50 (24 h)) was 100 to 1000 nM.

Cc1c(OCCC2CCN(CC(=O)Nc3ccc4c(C5CCC(=O)NC5=O)nn(C)c4c3)CC2)cccc1-c1ccc(N2CCc3cccc(C(=O)Nc4nc5ccccc5s4)c3C2)nc1C(=O)O (stereo not shown) [Compound 106, 6-[8-(1,3-benzothiazol-2-ylcarbamoyl)-3,4-dihydro-1H-isoquinolin-2-yl]-3-[3-[2-[1-[2-[[3-(2,6-dioxo-3-piperidyl)-1-methyl-indazol-6-yl]amino]-2-oxo-ethyl]-4-piperidyl]ethoxy]-2-methyl-phenyl]pyridine-2-carboxylic acid] was tested, and the “Ymin (6 h)” value (6 h) was “A (Ymin < 50%)”, the “Ymin (24 h)” value (24 h) was “A (Ymin < 50%)” and the DC50 (6 h, read-out: EC50 (6 h)) was < 100 nM. The DC50 (24 h, read-out: EC50 (24 h)) was < 100 nM.

For Cc1c(Oc2ccc(CCC(=O)Nc3ccc4c(C5CCC(=O)NC5=O)nn(C)c4c3)cc2)cccc1-c1ccc(N2CCc3cccc(C(=O)Nc4nc5ccccc5s4)c3C2)nc1C(=O)O (stereo not shown) [Compound 107, 6-[8-(1,3-benzothiazol-2-ylcarbamoyl)-3,4-dihydro-1H-isoquinolin-2-yl]-3-[3-[4-[3-[[3-(2,6-dioxo-3-piperidyl)-1-methyl-indazol-6-yl]amino]-3-oxo-propyl]phenoxy]-2-methyl-phenyl]pyridine-2-carboxylic acid], the “Ymin (6 h)” value (6 h) was “C (Ymin ≥ 70%)”, the “Ymin (24 h)” value (24 h) was “C (Ymin ≥ 70%)” and the DC50 (6 h, read-out: EC50 (6 h)) was 1000 to 10000 nM. It also gave a DC50 (24 h, read-out: EC50 (24 h)) of 1000 to 10000 nM.

With Cc1c(-c2ccc(N3CCc4cccc(C(=O)Nc5nc6ccccc6s5)c4C3)nc2C(=O)NCCCCCC(=O)Nc2cccc3c(C4CCC(=O)NC4=O)nn(C)c23)cnn1CC12CC3CC(CC(C3)C1)C2 (stereo not shown) [Compound 108, 2-(5-(1-(((3r,5r,7r)-adamantan-1-yl)methyl)-5-methyl-1H-pyrazol-4-yl)-6-((6-((3-(2,6-dioxopiperidin-3-yl)-1-methyl-1H-indazol-7-yl)amino)-6-oxohexyl)carbamoyl)pyridin-2-yl)-N-(benzo[d]thiazol-2-yl)-1,2,3,4-tetrahydroisoquinoline-8-carboxamide] the “Ymin (6 h)” value (6 h) was “B (50% ≤ Ymin < 70%)” and the DC50 (6 h, read-out: EC50 (6 h)) was < 100 nM.

In the case of Cc1c(-c2ccc(N3CCc4cccc(C(=O)Nc5nc6ccccc6s5)c4C3)nc2C(=O)NCCCCCCCCCC(=O)Nc2cccc3c(C4CCC(=O)NC4=O)nn(C)c23)cnn1CC12CC3CC(CC(C3)C1)C2 [Compound 109, 2-(5-(1-((3R, 5R, 7R)-adamantan-1-ylmethyl)-5-methyl-1H-pyrazol-4-yl)-6-((10-((3-(2,6-dioxopiperidin-3-yl)-1-methyl-1H-indazol-7-yl)amino)-10-oxodecyl)carbamoyl)pyridin-2-yl)-N-(benzo[d]thiazol-2-yl)-1,2,3,4-tetrahydroisoquinoline-8-carboxamide], the “Ymin (6 h)” value (6 h) is reported as “B (50% ≤ Ymin < 70%)” and the DC50 (6 h, read-out: EC50 (6 h)) is reported as < 100 nM.

With Cc1c(-c2ccc(N3CCc4cccc(C(=O)Nc5nc6ccccc6s5)c4C3)nc2C(=O)NCCCCCCCCCCCC(=O)Nc2cccc3c(C4CCC(=O)NC4=O)nn(C)c23)cnn1CC12CC3CC(CC(C3)C1)C2 (stereo not shown) [Compound 110, 2-(5-(1-((3r,5r,7r)-adamantan-1-ylmethyl)-5-methyl-1H-pyrazol-4-yl)-6-((12-((3-(2,6-dioxopiperidin-3-yl)-1-methyl-1H-indazol-7-yl)amino)-12-oxododecyl)carbamoyl)pyridin-2-yl)-N-(benzo[d]thiazol-2-yl)-1,2,3,4-tetrahydroisoquinoline-8-carboxamide] the “Ymin (6 h)” value (6 h) was “B (50% ≤ Ymin < 70%)” and the DC50 (6 h, read-out: EC50 (6 h)) was < 100 nM.

Source: US20240238423A9, “TETRAHYDROISOQUINOLINE HETEROBIFUNCTIONAL BCL-XL DEGRADERS” (Treeline Biosciences, Inc., priority 2022, published 2024)
